Measured values published in ChEMBL document CHEMBL1144916, “Identification of N,N-disubstituted phenylalanines as a novel class of inhibitors of hepatitis C NS5B polymerase” (J Med Chem, 2003).

Biological target: RNA-directed RNA polymerase (Hepacivirus hominis, UniProt O39930)
Assay: Inhibitory activity against Hepatitis C RNA dependent RNA polymerase Nonstructural protein 5B (NS5B polymerase) expressed from baculovirus-infected Sf9 insect cells

Sequence of RNA-directed RNA polymerase (O39930 whole entry): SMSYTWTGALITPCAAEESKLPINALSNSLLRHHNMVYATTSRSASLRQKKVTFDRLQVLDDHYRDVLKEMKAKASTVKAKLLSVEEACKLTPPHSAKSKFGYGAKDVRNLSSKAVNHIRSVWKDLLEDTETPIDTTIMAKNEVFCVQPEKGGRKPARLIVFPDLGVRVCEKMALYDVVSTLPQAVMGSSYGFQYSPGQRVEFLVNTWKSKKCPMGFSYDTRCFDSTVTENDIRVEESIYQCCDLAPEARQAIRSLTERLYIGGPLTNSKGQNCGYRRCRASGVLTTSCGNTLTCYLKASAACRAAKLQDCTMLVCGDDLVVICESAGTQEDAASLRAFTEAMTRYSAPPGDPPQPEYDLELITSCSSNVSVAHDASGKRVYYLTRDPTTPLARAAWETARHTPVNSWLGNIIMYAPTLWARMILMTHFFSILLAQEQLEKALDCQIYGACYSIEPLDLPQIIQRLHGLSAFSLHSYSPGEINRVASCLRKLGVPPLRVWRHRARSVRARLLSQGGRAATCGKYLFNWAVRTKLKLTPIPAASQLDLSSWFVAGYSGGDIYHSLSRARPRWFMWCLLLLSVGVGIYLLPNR

O=C(O)[C@@H](Cc1ccccc1)N(Cc1cccc(Br)c1)C(=O)c1ccc(Cl)cc1Cl
IC50: 8.6 µM

O=C(O)[C@H](Cc1ccccc1)N(Cc1ccc(Br)s1)C(=O)c1ccc(Cl)cc1Cl
IC50: 3.1 µM

O=C(O)[C@H](Cc1ccccc1)N(Cc1cccc(Cl)c1)C(=O)c1ccc(Cl)cc1Cl
IC50: 1.4 µM

O=C(O)[C@H](Cc1ccccc1)N(Cc1ccc(-c2nccs2)cc1)C(=O)c1ccc(Cl)cc1Cl
IC50: 5.7 µM

O=C(O)[C@H](Cc1ccccc1)N(Cc1cccc(Br)c1)C(=O)c1ccccc1Cl
IC50: 15 µM

COc1ccc(-c2ccc(Cl)cc2)c(COc2ccc(-c3nc4cc(C(=O)O)ccc4n3C3CCCCC3)cc2)c1
IC50: 0.62 µM

O=C(O)[C@H](Cc1ccccc1)N(Cc1cccnc1)C(=O)c1ccc(Cl)cc1Cl
IC50: 11 µM

O=C(O)[C@H](Cc1ccccc1)N(Cc1ccccc1Br)C(=O)c1ccc(Cl)cc1Cl
IC50: 8 µM

N#Cc1ccccc1CN(C(=O)c1ccc(Cl)cc1Cl)[C@@H](Cc1ccccc1)C(=O)O
IC50: 6 µM

O=C(O)[C@H](Cc1ccccc1)N(Cc1ccccc1)C(=O)c1ccc(Cl)cc1Cl
IC50: 8 µM

O=C(O)[C@H](Cc1ccccc1)N(Cc1ccc(Br)cc1)C(=O)c1ccc(Cl)cc1Cl
IC50: 9.1 µM

O=C(O)[C@H](Cc1ccccc1)N(Cc1ccc[n+]([O-])c1)C(=O)c1ccc(Cl)cc1Cl
IC50: 2.7 µM

O=C(O)[C@H](Cc1ccccc1)N(Cc1cccc(Br)c1)C(=O)c1ccc(Cl)cc1Cl
IC50: 3.5 µM

O=C(O)CN(Cc1cccc(Br)c1)C(=O)c1ccc(Cl)cc1Cl
IC50: 53 µM

O=C(O)[C@H](Cc1ccccc1)N(Cc1cccc(Br)c1)C(=O)c1ccc(Cl)cc1
IC50: 11 µM

O=C(O)[C@H](Cc1ccccc1)N(Cc1cccc(C(F)(F)F)c1)C(=O)c1ccc(Cl)cc1Cl
IC50: 1.7 µM

O=C(O)[C@H](Cc1ccccc1)N(Cc1cccc(F)c1)C(=O)c1ccc(Cl)cc1Cl
IC50: 3.2 µM

N#Cc1cccc(CN(C(=O)c2ccc(Cl)cc2Cl)[C@@H](Cc2ccccc2)C(=O)O)c1
IC50: 0.8 µM

O=C(O)[C@H](Cc1ccccc1)N(Cc1cccc([N+](=O)[O-])c1)C(=O)c1ccc(Cl)cc1Cl
IC50: 0.7 µM

Cc1cccc(CN(C(=O)c2ccc(Cl)cc2Cl)[C@@H](Cc2ccccc2)C(=O)O)c1
IC50: 1.8 µM

O=C(O)[C@H](Cc1ccccc1)N(Cc1ccc(-c2cc3ccccc3o2)s1)C(=O)c1ccc(Cl)cc1Cl
IC50: 8.6 µM

N#Cc1ccc(CN(C(=O)c2ccc(Cl)cc2Cl)[C@@H](Cc2ccccc2)C(=O)O)cc1
IC50: 8 µM
